Measured values from patent publication US20250144253A1, “3-((3-([1,1'-BIPHENYL]-3-YLMETHOXY)PHENOXY)METHYL)BENZONITRILE DERIVATIVES AND THE USE THEREOF” (HELMHOLTZ-ZENTRUM DRESDEN-ROSSENDORF E.V., priority 2021, published 2025).
Converted amounts (≈) assume the structure as drawn.

How the values were obtained:
[1] = Water solubility by adding water in 1 μl steps to 1 mg compound; assay type: physicochemical; details: thermodynamic from solid
Method: The water solubility of compounds 85-90 was determined by weighing 1 mg of the cold compound in an Eppendorf-tube and adding water in 1 μl steps. The addition was performed until everything was dissolved. The value in mg/μl was converted to […].

[2] = target: T1, PD-L1 (Homo sapiens, UniProt Q9NZQ7); assay: Saturation binding assay of Cu-64 labelled radioligands on PC3 hPSCA PD-L1 overexpressing cell line; details: PC3 hPSCA PD-L1 cells, n = 3; for Kd: 4° C., 90 min
T1 construct: expressed in transfected cells; host or cells: PC3 hPSCA PD-L1 overexpressing cell line
Method: Experiments were performed on a PC3 hPSCA PD-L1 overexpressing cell line in triplicates and three experiments were performed per compound, resulting in a 3×3 data set per compound (see FIGS. 1 to 3). The saturated, upper curve represents the total binding of the compound whereas the lower, linear curve represents the unspecific binding. The specific binding is represented as the difference between total and unspecific binding.
In the following the procedure for saturation binding assay is explained: The respective Cu-64 labeled compound is prepared freshly for each experiment. The cells with PD-L1 expression were prepared in 48-well plates. Three rows in the plates were designated for determination of total binding and one row for determination of the unspecific binding. For the latter, the cells are pretreated for 15 min with a 300 fold excess of a literature known PD-L1 inhibitor with high binding to PD-L1. […] Protein determination takes place at the next day and provides the Bmax value (total density of PD-L1 receptors on cell surface). Plotting and graphical interpretation provides curves and Kd-values from graph fitting.

[3] = Distribution coefficient log D at pH 7.4; assay type: physicochemical; details: pH 7.4, n = 3
Excerpt: In general, the more negative the values of log D the better the water solubility.

[4] = tested on: PD-L1 tumor; assay: PET imaging in PD-L1 overexpressing mouse xenograft model; assay type: in vivo
Method: Compound 119 was tested in a PD-L1 overexpressing mouse xenograft model. PET images were recorded 2 h, 15 h and 24 h post injection (see FIG. 4). The experiments were performed with compound 119 in duplicates (two mice for each timepoint). About 10 MBq of radiolabelled compound were injected intravenously in the tail vain of an alive mouse. At 2 hrs p.i. the first image was recorded. […] At 5 hrs p.i. the second image was recorded. High uptake in liver; high uptake in colon and intestine and increased uptake in PD-L1 tumor have been observed. At 24 hrs p.i. the third image was recorded. Moderate uptake in liver, low uptake in intestine and moderate uptake in the PD-L1 positive tumor has been observed.

[5] = tested on: PD-L1 tumor; assay: as above; assay type: in vivo; details: 5 hrs p.i. (second image)

T1 sequence (Q9NZQ7 19-290): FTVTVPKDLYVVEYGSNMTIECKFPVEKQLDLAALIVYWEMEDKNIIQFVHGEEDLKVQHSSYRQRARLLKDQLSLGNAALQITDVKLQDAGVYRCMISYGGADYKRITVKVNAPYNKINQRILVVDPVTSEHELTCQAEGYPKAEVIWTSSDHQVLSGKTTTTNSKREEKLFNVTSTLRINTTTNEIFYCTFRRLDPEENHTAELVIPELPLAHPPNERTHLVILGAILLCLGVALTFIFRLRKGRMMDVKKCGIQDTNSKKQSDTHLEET

Row | Compound | solubility [1] | Kd [2] | Bmax (receptor density) [2] | Log D7.4 [3] | other results
1 | Cc1c(COc2cc(OCc3cncc(S(C)(=O)=O)c3)c(CN(C)CC(=O)NCC(S(=O)(=O)O)S(=O)(=O)O)cc2Cl)cccc1-c1cccc(OCc2cn([C@@H]3O[C@H](CO)[C@@H](O)[C@H](O)[C@H]3F)nn2)c1C [Compound 89, 2-(2-((5-Chloro-4-((3′-((1-((2R,3R,4S,5S,6R)-3-fluoro-4,5-dihydroxy-6-(hydroxymethyl)tetrahydro-2H-pyran-2-yl)-1H-1,2,3-triazol-4-yl)methoxy)-2,2′-dimethyl-[1,1′-biphenyl]-3-yl)methoxy)-2-((5-(methylsulfonyl)pyridin-3-yl)methoxy)benzyl)(methyl)amino)acetamido)ethane-1,1-disulfonic acid] | 120 mg/mL (≈ 113 mM) |  |  |  | 
2 | Cc1c(COc2cc(OCc3cncc(C#N)c3)c(CN(C)CC(=O)NCC(S(=O)(=O)O)S(=O)(=O)O)cc2Cl)cccc1-c1cccc(OCc2cn(CCCN3CCN(C(=O)CN4CCN(CC(=O)O)CCN(CC(=O)O)CCN(CC(=O)O)CC4)CC3)nn2)c1C [Compound 121] |  | 128 ± 13.2 nM | 20.9 ± 2.17 pmol/mg | −2.99 ± 0.02 | 
3 | Cc1c(COc2cc(OCc3cncc(S(C)(=O)=O)c3)c(CN(C)CC(=O)NCC(S(=O)(=O)O)S(=O)(=O)O)cc2Cl)cccc1-c1cccc(OCc2cn(CCCF)nn2)c1C [Compound 88, 2-(2-((5-Chloro-4-((3′-((1-(3-fluoropropyl)-1H-1,2,3-triazol-4-yl)methoxy)-2,2′-dimethyl-[1,1′-biphenyl]-3-yl)methoxy)-2-((5-(methylsulfonyl)pyridin-3-yl)methoxy)benzyl)(methyl)amino)acetamido)ethane-1,1-disulfonic acid] | 85 mg/mL (≈ 89.1 mM) |  |  |  | 
4 | Cc1c(COc2cc(OCc3cncc(S(C)(=O)=O)c3)c(CN(C)CC(=O)NCC(S(=O)(=O)O)S(=O)(=O)O)cc2Cl)cccc1-c1cccc(OCc2cn(CCCC3CCN(C(=O)CN4CCN(CC(=O)O)CCN(CC(=O)O)CCN(CC(=O)O)CC4)CC3)nn2)c1C [Compound 118] |  | 123 ± 11.7 nM | 13.5 ± 0.98 pmol/mg | −2.75 ± 0.04 | 
5 | CN(CC(=O)NCC(S(=O)(=O)O)S(=O)(=O)O)Cc1cc(Cl)c(OCc2cccc(-c3cccc(OCc4cn([C@@H]5O[C@H](CO)[C@@H](O)[C@H](O)[C@H]5F)nn4)c3)c2Br)cc1OCc1cncc(S(C)(=O)=O)c1 [Compound 86, 2-(2-((4-((2-Bromo-3′-((1-((2R,3R,4S,5S,6R)-3-fluoro-4,5-dihydroxy-6-(hydroxymethyl)tetrahydro-2H-pyran-2-yl)-1H-1,2,3-triazol-4-yl)methoxy)-[1,1′-biphenyl]-3-yl)methoxy)-5-chloro-2-((5-(methylsulfonyl)pyridin-3-yl)methoxy)benzyl)(methyl)amino)acetamido)ethane-1,1-disulfonic acid] | 110 mg/mL (≈ 99.2 mM) |  |  |  | 
6 | Cc1c(COc2cc(OCc3cncc(S(C)(=O)=O)c3)c(CN(C)CC(=O)NCC(S(=O)(=O)O)S(=O)(=O)O)cc2Cl)cccc1-c1cccc(OCc2cn(CCOCCOCCN3CCN(C(=O)CN4CCN(CC(=O)O)CCN(CC(=O)O)CCN(CC(=O)O)CC4)CC3)nn2)c1C [Compound 120] |  | 71.3 ± 10.1 nM | 7.04 ± 0.42 pmol/mg | −3.50 ± 0.01 | 
7 | Cc1c(COc2cc(OCc3cncc(C#N)c3)c(CN(C)CC(=O)NCC(S(=O)(=O)O)S(=O)(=O)O)cc2I)cccc1-c1cccc(OCc2cn(CCCN3CCN(C(=O)CN4CCN(CC(=O)O)CCN(CC(=O)O)CCN(CC(=O)O)CC4)CC3)nn2)c1C [Compound 123] |  | 300 ± 20.6 nM | 49.6 ± 1.27 pmol/mg | −2.89 ± 0.02 | 
8 | CN(CC(=O)NCC(S(=O)(=O)O)S(=O)(=O)O)Cc1cc(Cl)c(OCc2cccc(-c3cccc(OCc4cn(CCOCCOCCN5CCN(C(=O)CN6CCN(CC(=O)O)CCN(CC(=O)O)CCN(CC(=O)O)CC6)CC5)nn4)c3)c2Br)cc1OCc1cncc(S(C)(=O)=O)c1 [Compound 117] |  | 357 ± 66.5 nM | 5.85 ± 1.14 (n = 6) pmol/mg | −3.47 ± 0.10 | 
9 | Cc1c(COc2cc(OCc3cncc(C#N)c3)c(CN(C)CC(=O)NCC(S(=O)(=O)O)S(=O)(=O)O)cc2Br)cccc1-c1cccc(OCc2cn(CCCN3CCN(C(=O)CN4CCN(CC(=O)O)CCN(CC(=O)O)CCN(CC(=O)O)CC4)CC3)nn2)c1C [Compound 122] |  | 135 ± 2.34 nM | 8.28 ± 0.13 pmol/mg | −3.48 ± 0.03 | 
10 | CN(CC(=O)NCC(S(=O)(=O)O)S(=O)(=O)O)Cc1cc(Cl)c(OCc2cccc(-c3cccc(OCc4cn(CCCF)nn4)c3)c2Br)cc1OCc1cncc(S(C)(=O)=O)c1 [Compound 85, 2-(2-((4-((2-Bromo-3′-((1-(3-fluoropropyl)-1H-1,2,3-triazol-4-yl)methoxy)-[1,1′-biphenyl]-3-yl)methoxy)-5-chloro-2-((5-(methylsulfonyl)pyridin-3-yl)methoxy)benzyl)(methyl)amino)acetamido)ethane-1,1-disulfonic acid] | 80 mg/mL (≈ 79.7 mM) |  |  |  | 
11 | CN(CC(=O)NCC(S(=O)(=O)O)S(=O)(=O)O)Cc1cc(Cl)c(OCc2cccc(-c3cccc(OCc4cn([C@@H]5O[C@H](CF)[C@@H](O)[C@H](O)[C@H]5O)nn4)c3)c2Br)cc1OCc1cncc(S(C)(=O)=O)c1 [Compound 87, 2-(2-((4-((2-Bromo-3′-((1-((2R,3R,4S,5S,6S)-6-(fluoromethyl)-3,4,5-trihydroxytetrahydro-2H-pyran-2-yl)-1H-1,2,3-triazol-4-yl)methoxy)-[1,1′-biphenyl]-3-yl)methoxy)-5-chloro-2-((5-(methylsulfonyl)pyridin-3-yl)methoxy)benzyl)(methyl)amino)acetamido)ethane-1,1-disulfonic acid] | 115 mg/mL (≈ 104 mM) |  |  |  | 
12 | Cc1c(COc2cc(OCc3cncc(S(C)(=O)=O)c3)c(CN(C)CC(=O)NCC(S(=O)(=O)O)S(=O)(=O)O)cc2Cl)cccc1-c1cccc(OCc2cn([C@@H]3O[C@H](CF)[C@@H](O)[C@H](O)[C@H]3O)nn2)c1C [Compound 90, 2-(2-((5-Chloro-4-((3′-((1-((2R,3R,4S,5S,6S)-6-(fluoromethyl)-3,4,5-trihydroxytetrahydro-2H-pyran-2-yl)-1H-1,2,3-triazol-4-yl)methoxy)-2,2′-dimethyl-[1,1′-biphenyl]-3-yl)methoxy)-2-((5-(methylsulfonyl)pyridin-3-yl)methoxy)benzyl)(methyl)amino)acetamido)ethane-1,1-disulfonic acid] | 115 mg/mL (≈ 109 mM) |  |  |  | 
13 | CN(CC(=O)NCC(S(=O)(=O)O)S(=O)(=O)O)Cc1cc(Cl)c(OCc2cccc(-c3cccc(OCc4cn(CCCC5CCN(C(=O)CN6CCN(CC(=O)O)CCN(CC(=O)O)CCN(CC(=O)O)CC6)CC5)nn4)c3)c2Br)cc1OCc1cncc(S(C)(=O)=O)c1 [Compound 115] |  | 585 ± 39.6 nM | 11.7 ± 0.54 pmol/mg | −2.73 ± 0.04 | 
14 | Cc1c(COc2cc(OCc3cncc(S(C)(=O)=O)c3)c(CN[C@@H](CS(=O)(=O)O)C(=O)NCCS(=O)(=O)O)cc2Cl)cccc1-c1cccc(OCc2cn(CCCN3CCN(C(=O)[C@H](CS(=O)(=O)O)NC(=O)CC[C@H](C(=O)O)N4CCN(CC(=O)O)CCN(CC(=O)O)CC4)CC3)nn2)c1C [Compound 222] |  |  |  | −3.80 ± 0.02 | 
15 | Cc1c(COc2cc(OCc3cncc(S(C)(=O)=O)c3)c(CN(C)CC(=O)NCC(S(=O)(=O)O)S(=O)(=O)O)cc2Cl)cccc1-c1cccc(OCc2cn(CCCN3CCN(C(=O)CN4CCN(CC(=O)O)CCN(CC(=O)O)CCN(CC(=O)O)CC4)CC3)nn2)c1C [Compound 119] |  | 59.9 ± 4.63 nM | 5.43 ± 0.46 pmol/mg | −3.14 ± 0.02 | circulation in the blood pool ([4]; 2 hrs p.i.): did still circulate in the blood pool; uptake in PD-L1 tumor ([4]; 2 hrs p.i.): low; uptake in bladder and intestines ([4]; 2 hrs p.i.): high; uptake in liver ([4]; 2 hrs p.i., about 10 MBq i.v.): Moderate; uptake in intestine ([4]; 24 hrs p.i.): low; uptake in liver ([4]; 24 hrs p.i.): Moderate; uptake in the PD-L1 positive tumor ([4]; 24 hrs p.i.): moderate; uptake in PD-L1 tumor [5]: increased; uptake in colon and intestine [5]: high; uptake in liver [5]: High
